Data reported in patent US9873680B2 (Gilead Sciences, Inc., priority 2014, dated 2018).

Key:
[1] = Test B: Cytotoxicity Assay; type: cell-based; conditions: human, uninfected MT-4 cells, CellTiter-Glo
Description: Test B: Cytotoxicity Assay Compound cytotoxicity and the corresponding CC50 values was determined using the same protocol as described in the antiviral assay (Test A) except that uninfected cells were used.

[2] = system: HIV-IIIb; assay: Test A: Antiviral Assay in MT4 Cells; type: cell-based, HIV-1; conditions: Human immunodeficiency virus 1, MT4, 120 h; 0.2 μM drug concentration; MT-4 cells infected with HIV-IIIb, 5 days; values normalized to 100%; average over time; read-out: % inhibition at 0.2 μM (percent inhibition of virus-induced cell killing)
How it was run: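 Readout was CellTiter-Glo luminescence after 10 min room-temperature lysis, taken 5 days after plating at 37 °C. The 2000 MT-4 cells per well, mixed 1 h beforehand with HIV-IIIb (m.o.i. 0.003), went straight onto the diluted compound.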

## Cn1nc(NS(C)(=O)=O)c2c(Cl)ccc(-c3ccc(C#CC4(O)CC4)nc3[C@H](Cc3cc(F)cc(F)c3)NC(=O)Cn3nc(C(F)(F)F)c4c3C(F)(F)[C@@H]3C[C@H]43)c21 [Compound 64, N—((S)-1-(3-(4-chloro-1-methyl-3-(methylsulfonamido)-1H-indazol-7-yl)-6-((1-hydroxycyclopropyl)ethynyl)pyridin-2-yl)-2-(3,5-difluorophenyl)ethyl)-2-((3bS,4aR)-5,5-difluoro-3-(trifluoromethyl)-3b,4,4a,5-tetrahydro-1H-cyclopropa[3,4]cyclopenta[1,2-c]pyrazol-1-yl)acetamide]
[1]
  CC50 at 5 days: 16.1 µM
[2]
  inhibition at 0.2 µM: 98%

## CN(C)c1ccc(C#Cc2ccc(-c3ccc4c(c3)C(=O)NC4)c([C@H](Cc3cc(F)cc(F)c3)NC(=O)Cn3nc(C(F)(F)F)c4c3C(F)(F)[C@@H]3C[C@H]43)n2)cc1 [Compound 14, 2-((3bS,4aR)-5,5-difluoro-3-(trifluoromethyl)-3b,4,4a,5-tetrahydro-1H-cyclopropa[3,4]cyclopenta[1,2-c]pyrazol-1-yl)-N—((S)-2-(3,5-difluorophenyl)-1-(6-((4-(dimethylamino)phenyl)ethynyl)-3-(3-oxoisoindolin-5-yl)pyridin-2-yl)ethyl)acetamide]
[1]
  CC50 at 5 days: > 53.2 µM
[2]
  inhibition at 0.2 µM: 1%

## Cn1nc(NS(C)(=O)=O)c2c(Cl)ccc(-c3ccc(C#CC4CCNC4)nc3[C@H](Cc3cc(F)cc(F)c3)NC(=O)Cn3nc(C(F)(F)F)c4c3C(F)(F)[C@@H]3C[C@H]43)c21 (stereo partly drawn) [Compound 44, N-((1S)-1-(3-(4-chloro-1-methyl-3-(methylsulfonamido)-1H-indazol-7-yl)-6-(pyrrolidin-3-ylethynyl)pyridin-2-yl)-2-(3,5-difluorophenyl)ethyl)-2-((3bS,4aR)-5,5-difluoro-3-(trifluoromethyl)-3b,4,4a,5-tetrahydro-1H-cyclopropa[3,4]cyclopenta[1,2-c]pyrazol-1-yl)acetamide]
[1]
  CC50 at 5 days: 5.64 µM
[2]
  inhibition at 0.2 µM: 100%

## CN1CCN(CC#Cc2ccc(-c3cccc4c(NS(C)(=O)=O)nn(C)c34)c([C@H](Cc3cc(F)cc(F)c3)NC(=O)Cn3nc(C(F)(F)F)c4c3C(F)(F)[C@@H]3C[C@H]43)n2)CC1 [Compound 32, 2-((3bS,4aR)-5,5-difluoro-3-(trifluoromethyl)-3b,4,4a,5-tetrahydro-1H-cyclopropa[3,4]cyclopenta[1,2-c]pyrazol-1-yl)-N—((S)-2-(3,5-difluorophenyl)-1-(3-(1-methyl-3-(methylsulfonamido)-1H-indazol-7-yl)-6-(3-(4-methylpiperazin-1-yl)prop-1-yn-1-yl)pyridin-2-yl)ethyl)acetamide]
[1]
  CC50 at 5 days: 8.53 µM
[2]
  inhibition at 0.2 µM: 95%

## Cn1nc(NS(C)(=O)=O)c2c(Cl)ccc(-c3ccc(C#CC(C)(C)N4CCOC4=O)nc3[C@H](Cc3cc(F)cc(F)c3)NC(=O)Cn3nc(C(F)(F)F)c4c3C(F)(F)[C@@H]3C[C@H]43)c21 [Compound 63, N—((S)-1-(3-(4-chloro-1-methyl-3-(methylsulfonamido)-1H-indazol-7-yl)-6-(3-methyl-3-(2-oxooxazolidin-3-yl)but-1-yn-1-yl)pyridin-2-yl)-2-(3,5-difluorophenyl)ethyl)-2-((3bS,4aR)-5,5-difluoro-3-(trifluoromethyl)-3b,4,4a,5-tetrahydro-1H-cyclopropa[3,4]cyclopenta[1,2-c]pyrazol-1-yl)acetamide]
[1]
  CC50 at 5 days: 20.7 µM
[2]
  inhibition at 0.2 µM: 90%

## Cn1nc(NS(C)(=O)=O)c2c(Cl)ccc(-c3ccc(C#CC4(O)CC(F)(F)C4)nc3[C@H](Cc3cc(F)cc(F)c3)NC(=O)Cn3nc(C(F)F)c4c3C(F)(F)CCC4(F)F)c21 [Compound 104, (S)—N-(1-(3-(4-chloro-1-methyl-3-(methylsulfonamido)-1H-indazol-7-yl)-6-((3,3-difluoro-1-hydroxycyclobutyl)ethynyl)pyridin-2-yl)-2-(3,5-difluorophenyl)ethyl)-2-(3-(difluoromethyl)-4,4,7,7-tetrafluoro-4,5,6,7-tetrahydro-1H-indazol-1-yl)acetamide]
[1]
  CC50 at 5 days: 8.42 µM
[2]
  inhibition at 0.2 µM: 100%
